Marks after values point to notes of the source that are not given here.
What was measured:
[1] = system: general behavior of male mice; test: General behavior of male mice by visual observation using a checklist of behaviors; type: in vivo; conditions: for Number of Mice Affected: Decreased Open Field Activity / Number of Mice Affected: Decreased Startle Reflex / Number of Mice Affected: Extensor Limb Tone (hind limb) / Number of Mice Affected: Impaired Horizontal Screen Performance / Number of Mice Affected: Impaired Visual Placing Reflex / Number of Mice Affected: Locomotor Ataxia / Number of Mice Affected: Loss of Corneal Reflex / Number of Mice Affected: Loss of Pinnal Reflex / Number of Mice Affected: Loss of Righting Reflex / Number of Mice Affected: Passive Response to Handling / Number of Mice Affected: Reduced Skin Plasticity / Number of Mice Affected: Soft Body Tone / Number of Mice Affected: Tail Pinch Response, Absent: N = 3/group
Procedure: The effects of test compound on general behavior were evaluated by visual observation using a checklist of behaviors.

[2] = system: isolation-induced aggressive behavior in pairs of mice; test: Isolation-induced aggression model in pairs of mice; type: in vivo, CrI:CD-1(ICR)BR albino mice
Procedure: The effects of test compound on the aggressive behavior of CrI:CD-1(ICR)BR albino mice were evaluated using the paradigm of isolation-induced aggression.
Male CrI:CD-1(ICR)BR albino mice, fasted overnight, were individually housed for 5 weeks in plastic cages on wood-chip bedding. Subsequently, they were paired for 1 minute daily for several days by placing one individually housed mouse (intruder) into the resident cage of another individually housed mouse (resident). The 1-minute pairing of intruder and resident mouse elicits aggressive behavior. Pairs of mice showing consistent aggressive behavior when paired for 1 minute, during several days were selected as subjects for drug testing.
Test compound (10 to 40 mg/kg p.o.) or the vehicle (methocel; aqueous 0.5%, w/v, hydroxypropyl methylcellulose solution) was administered (10 mL/kg) to the resident and intruder mouse. One and 4 hours after dosing, the mice were paired and the onset of fighting was recorded. […] The duration of fighting during a 1-minute test period was recorded. Mice were re-used in this procedure after several days to a week to allow metabolism and elimination of test compounds. The mice weighed 32 to 49 g at the time of testing and were fasted overnight before dosing. Mice were euthanized with CO2 if they were sick or injured.
Results were expressed as the median onset of fighting and median duration of fighting in vehicle and drug-treated groups. The statistical significance of an increase in the median onset or a reduction in the median duration of fighting in pairs of mice given test compound or its vehicle 1 and 4 hours after administration was determined using the nonparametric Wilcoxon test (p<0.05, 1-tailed).

[3] = 10 mg/kg p.o., 1 hour after administration
[4] = 10 mg/kg p.o., 4 hours after administration
[5] = 20 mg/kg p.o., 1 hour after administration
[6] = 20 mg/kg p.o., 4 hours after administration
[7] = 30 mg/kg p.o., 1 hour after administration
[8] = 30 mg/kg p.o., 4 hours after administration
[9] = 40 mg/kg p.o., 1 hour after administration
[10] = 40 mg/kg p.o., 4 hours after administration

`NC(=O)OC[C@@H](O)c1ccccc1Cl` [COMPOUND #7, carisbamate] was tested, and the “Number of Mice Affected: Decreased Open Field Activity” value ([1]; 40 mg/kg p.o., 1 h) was 0, the “Number of Mice Affected: Decreased Startle Reflex” value (from here on “Number … Decreased Startle Reflex”) ([1]; 40 mg/kg p.o., 1 h) was 0 and the “Number of Mice Affected: Extensor Limb Tone (hind limb)” value (shortened to “Number of Mice Affected … (hind limb)”) ([1]; 40 mg/kg p.o., 1 h) was 0. The “Number of Mice Affected: Impaired Horizontal Screen Performance” value ([1]; 40 mg/kg p.o., 1 h) was 0, the “Number of Mice Affected: Impaired Visual Placing Reflex” value ([1]; 40 mg/kg p.o., 1 h) was 0 and the “Number of Mice Affected: Locomotor Ataxia” value (from here on “Number … Locomotor Ataxia”) ([1]; 40 mg/kg p.o., 1 h) was 0. For the same molecule, the “Number of Mice Affected: Loss of Corneal Reflex” value (shortened to “Number … Loss of Corneal Reflex”) ([1]; 40 mg/kg p.o., 1 h) was 0, the “Number of Mice Affected: Loss of Pinnal Reflex” value (from here on “Number … Loss of Pinnal Reflex”) ([1]; 40 mg/kg p.o., 1 h) was 0 and the “Number of Mice Affected: Loss of Righting Reflex” value (“Number … Loss of Righting Reflex” below) ([1]; 40 mg/kg p.o., 1 h) was 0. For the same molecule, the “Number of Mice Affected: Passive Response to Handling” value (“Number of Mice Affected … to Handling” for short) ([1]; 40 mg/kg p.o., 1 h) was 0, the “Number of Mice Affected: Reduced Skin Plasticity” value (shortened to “Number … Reduced Skin Plasticity”) ([1]; 40 mg/kg p.o., 1 h) was 0 and the “Number of Mice Affected: Soft Body Tone” value ([1]; 40 mg/kg p.o., 1 h) was 0. The “Number of Mice Affected: Tail Pinch Response, Absent” value (shortened to “Number of Mice Affected … Absent”) ([1]; 40 mg/kg p.o., 1 h) was 0, the “Number of Mice Affected: Decreased Open Field Activity” value ([1]; 40 mg/kg p.o., 4 h) was 0 and the “Number … Decreased Startle Reflex” value ([1]; 40 mg/kg p.o., 4 h) was 0. The “Number of Mice Affected … (hind limb)” value ([1]; 40 mg/kg p.o., 4 h) was 0, the “Number of Mice Affected: Impaired Horizontal Screen Performance” value ([1]; 40 mg/kg p.o., 4 h) was 0 and the “Number of Mice Affected: Impaired Visual Placing Reflex” value ([1]; 40 mg/kg p.o., 4 h) was 0. The “Number … Locomotor Ataxia” value ([1]; 40 mg/kg p.o., 4 h) was 0, the “Number … Loss of Corneal Reflex” value ([1]; 40 mg/kg p.o., 4 h) was 0 and the “Number … Loss of Pinnal Reflex” value ([1]; 40 mg/kg p.o., 4 h) was 0. The “Number … Loss of Righting Reflex” value ([1]; 40 mg/kg p.o., 4 h) was 0, the “Number of Mice Affected … to Handling” value ([1]; 40 mg/kg p.o., 4 h) was 0 and the “Number … Reduced Skin Plasticity” value ([1]; 40 mg/kg p.o., 4 h) was 0. For the same molecule, the “Number of Mice Affected: Soft Body Tone” value ([1]; 40 mg/kg p.o., 4 h) was 0, the “Number of Mice Affected … Absent” value ([1]; 40 mg/kg p.o., 4 h) was 0 and the “Number of Mice Affected: Decreased Open Field Activity” value ([1]; 100 mg/kg p.o., 1 h) was 0. The “Number … Decreased Startle Reflex” value ([1]; 100 mg/kg p.o., 1 h) was 0, the “Number of Mice Affected … (hind limb)” value ([1]; 100 mg/kg p.o., 1 h) was 0 and the “Number of Mice Affected: Impaired Horizontal Screen Performance” value ([1]; 100 mg/kg p.o., 1 h) was 0. For the same molecule, the “Number of Mice Affected: Impaired Visual Placing Reflex” value ([1]; 100 mg/kg p.o., 1 h) was 0, the “Number … Locomotor Ataxia” value ([1]; 100 mg/kg p.o., 1 h) was 0 and the “Number … Loss of Corneal Reflex” value ([1]; 100 mg/kg p.o., 1 h) was 0. The “Number … Loss of Pinnal Reflex” value ([1]; 100 mg/kg p.o., 1 h) was 0, the “Number … Loss of Righting Reflex” value ([1]; 100 mg/kg p.o., 1 h) was 0 and the “Number of Mice Affected … to Handling” value ([1]; 100 mg/kg p.o., 1 h) was 0. The “Number … Reduced Skin Plasticity” value ([1]; 100 mg/kg p.o., 1 h) was 0, the “Number of Mice Affected: Soft Body Tone” value ([1]; 100 mg/kg p.o., 1 h) was 0 and the “Number of Mice Affected … Absent” value ([1]; 100 mg/kg p.o., 1 h) was 0. The “Number of Mice Affected: Decreased Open Field Activity” value ([1]; 100 mg/kg p.o., 4 h) was 0, the “Number … Decreased Startle Reflex” value ([1]; 100 mg/kg p.o., 4 h) was 0 and the “Number of Mice Affected … (hind limb)” value ([1]; 100 mg/kg p.o., 4 h) was 0. The “Number of Mice Affected: Impaired Horizontal Screen Performance” value ([1]; 100 mg/kg p.o., 4 h) was 0, the “Number of Mice Affected: Impaired Visual Placing Reflex” value ([1]; 100 mg/kg p.o., 4 h) was 0 and the “Number … Locomotor Ataxia” value ([1]; 100 mg/kg p.o., 4 h) was 0. The “Number … Loss of Corneal Reflex” value ([1]; 100 mg/kg p.o., 4 h) was 0, the “Number … Loss of Pinnal Reflex” value ([1]; 100 mg/kg p.o., 4 h) was 0 and the “Number … Loss of Righting Reflex” value ([1]; 100 mg/kg p.o., 4 h) was 0. For the same molecule, the “Number of Mice Affected … to Handling” value ([1]; 100 mg/kg p.o., 4 h) was 0, the “Number … Reduced Skin Plasticity” value ([1]; 100 mg/kg p.o., 4 h) was 0 and the “Number of Mice Affected: Soft Body Tone” value ([1]; 100 mg/kg p.o., 4 h) was 0. The “Number of Mice Affected … Absent” value ([1]; 100 mg/kg p.o., 4 h) was 0, the “effect on general behavior in mice” value ([1]; 300 mg/kg p.o.) was “produced sedation” and the “Number of Mice Affected: Decreased Open Field Activity” value ([1]; 300 mg/kg p.o., 1 h) was 3. The “Number … Decreased Startle Reflex” value ([1]; 300 mg/kg p.o., 1 h) was 3, the “Number of Mice Affected … (hind limb)” value ([1]; 300 mg/kg p.o., 1 h) was 3 and the “Number of Mice Affected: Impaired Horizontal Screen Performance” value ([1]; 300 mg/kg p.o., 1 h) was 3. The “Number of Mice Affected: Impaired Visual Placing Reflex” value ([1]; 300 mg/kg p.o., 1 h) was 3, the “Number … Locomotor Ataxia” value ([1]; 300 mg/kg p.o., 1 h) was 0 and the “Number … Loss of Corneal Reflex” value ([1]; 300 mg/kg p.o., 1 h) was 3. The “Number … Loss of Pinnal Reflex” value ([1]; 300 mg/kg p.o., 1 h) was 3, the “Number … Loss of Righting Reflex” value ([1]; 300 mg/kg p.o., 1 h) was 3 and the “Number of Mice Affected … to Handling” value ([1]; 300 mg/kg p.o., 1 h) was 3. For the same molecule, the “Number … Reduced Skin Plasticity” value ([1]; 300 mg/kg p.o., 1 h) was 3, the “Number of Mice Affected: Soft Body Tone” value ([1]; 300 mg/kg p.o., 1 h) was 3 and the “Number of Mice Affected … Absent” value ([1]; 300 mg/kg p.o., 1 h) was 3. For the same molecule, the “Number of Mice Affected: Decreased Open Field Activity” value ([1]; 300 mg/kg p.o., 4 h) was 2, the “Number … Decreased Startle Reflex” value ([1]; 300 mg/kg p.o., 4 h) was 0 and the “Number of Mice Affected … (hind limb)” value ([1]; 300 mg/kg p.o., 4 h) was 2. For the same molecule, the “Number of Mice Affected: Impaired Horizontal Screen Performance” value ([1]; 300 mg/kg p.o., 4 h) was 2, the “Number of Mice Affected: Impaired Visual Placing Reflex” value ([1]; 300 mg/kg p.o., 4 h) was 0 and the “Number … Locomotor Ataxia” value ([1]; 300 mg/kg p.o., 4 h) was 2. For the same molecule, the “Number … Loss of Corneal Reflex” value ([1]; 300 mg/kg p.o., 4 h) was 0, the “Number … Loss of Pinnal Reflex” value ([1]; 300 mg/kg p.o., 4 h) was 0 and the “Number … Loss of Righting Reflex” value ([1]; 300 mg/kg p.o., 4 h) was 0. The “Number of Mice Affected … to Handling” value ([1]; 300 mg/kg p.o., 4 h) was 0, the “Number … Reduced Skin Plasticity” value ([1]; 300 mg/kg p.o., 4 h) was 0 and the “Number of Mice Affected: Soft Body Tone” value ([1]; 300 mg/kg p.o., 4 h) was 2. The “Number of Mice Affected … Absent” value ([1]; 300 mg/kg p.o., 4 h) was 0, the “behavioral or physical signs in mice” value ([1]; doses up to 100 mg/kg p.o.) was “No behavioral or physical signs were observed” and the “Median Duration of isolation-induced fighting” value [2, 3] was 28 s. The “Median Onset of isolation-induced fighting” value (shortened to “Median Onset”) [2, 3] was 5 s, the “Median Duration of isolation-induced fighting” value [2, 4] was 6 s and the “Median Onset” value [2, 4] was 4 s. The “Median Duration of isolation-induced fighting” value [2, 5] was 20 s, the “Median Onset” value [2, 5] was 11 s and the “Median Duration of isolation-induced fighting” value [2, 6] was 26 s. The “onset of initiation of fighting compared to vehicle-treated group” value [2, 6] was “significantly shortened”, the “Median Duration of isolation-induced fighting” value [2, 7] was 18 s and the “Median Onset” value [2, 7] was 14 s. For the same molecule, the “Median Duration of isolation-induced fighting” value [2, 8] was 9.5 s, the “Median Onset” value [2, 8] was 4 s and the “Median Duration of isolation-induced fighting” value [2, 9] was 0.5^b sec. The “Median Onset” value [2, 9] was 40 s, the “isolation-induced aggressive behavior in pairs of mice” value ([2]; 40 mg/kg p.o., 1 hour after administration, p<0.05) was “statistically significantly inhibited” and the “Median Duration of isolation-induced fighting” value [2, 10] was 20 s. For the same molecule, the “Median Onset” value [2, 10] was 17 s and the “median duration of fighting compared to vehicle-treated groups” value ([2]; any group (10 to 40 mg/kg p.o.), 4 hours after administration) was “not affected”.

Reference: patent US20080103127A1, “METHODS FOR TREATING DISRUPTIVE BEHAVIOR DISORDERS” (priority 2006, published 2008)
